PMC11620503 (Antimicrobial Agents and Chemotherapy, 2024)

Legend:
Test in all cases: Ki app determination (Waley's method)
OXA-66 = OXA-66 (Acinetobacter baumannii, UniProt Q58XD2)
NDM-1 = NDM-1 (Klebsiella pneumoniae, UniProt C7C422)
OXA-23 = OXA-23 (Acinetobacter baumannii, UniProt Q9L4P2)
IMP-1 = IMP-1 (Serratia marcescens, UniProt P52699)
OXA-65 = OXA-65 (Acinetobacter baumannii, UniProt Q58XD3)
NDM-6 = NDM-6 (Klebsiella pneumoniae, UniProt C7C422, A233V)
CTX-M-27 = CTX-M-27 (Escherichia coli, UniProt Q840M4)
KPC-3 = KPC-3 (Klebsiella pneumoniae, UniProt Q9F663, H272Y)
KPC-2 = KPC-2 (Klebsiella pneumoniae, UniProt Q9F663)
CTX-M-14 = CTX-M-14 (Escherichia coli, UniProt Q9L5C7)
IMP-6 = IMP-6 (Serratia marcescens, UniProt P52699, S214G)
SHV-5 = SHV-5 (Klebsiella pneumoniae, UniProt P0A3M1)
SHV-12 = SHV-12 (Klebsiella pneumoniae, UniProt P0A3M1, L31Q)
SHV-2 = SHV-2 (Klebsiella pneumoniae, UniProt P0A9Z8)
OXA-72 = OXA-72 (Acinetobacter baumannii, UniProt Q5XQU0)
NDM-5 = NDM-5 (Klebsiella pneumoniae, UniProt C7C422, M154L/V88L)
OXA-24 = OXA-24 (Acinetobacter baumannii, UniProt Q8RLA6)
CTX-M-15 = CTX-M-15 (Escherichia coli, UniProt Q9EXV5)
NDM-4 = NDM-4 (Klebsiella pneumoniae, UniProt C7C422, M154L)
OXA-48 = OXA-48 (Klebsiella pneumoniae, UniProt Q6XEC0)
NDM-7 = NDM-7 (Klebsiella pneumoniae, UniProt C7C422, D130N/M154L)
KPC-38 = KPC-38 (Klebsiella pneumoniae, UniProt Q9F663); conditions: read-out: Ki app, means from three independent studies
VIM-1 = VIM-1 (Pseudomonas aeruginosa, UniProt A0A0F7KYQ8)
VIM-2 = VIM-2 (Escherichia coli, UniProt Q5U7L7)

O=C(O)C[C@@H]1CC[C@H](NC(=O)Cc2cccs2)B(O)O1 [Vaborbactam, vaborbactam]
Ki (OXA-66): > 100000 nM
Ki (NDM-1): > 100000 nM
Ki (OXA-23): > 100000 nM
Ki (IMP-1): > 100000 nM
Ki (OXA-65): > 100000 nM
Ki (NDM-6): > 100000 nM
Ki (CTX-M-27): 351 ± 28.7 nM
Ki (KPC-3): 88.3 ± 30.3 nM
Ki (KPC-2): 63.7 ± 24.9 nM
Ki (CTX-M-14): 392 ± 20.3 nM
Ki (IMP-6): > 100000 nM
Ki (SHV-5): 1420 nM
Ki (SHV-12): 755 ± 103 nM
Ki (SHV-2): > 100000 nM
Ki (OXA-72): > 100000 nM
Ki (NDM-5): > 100000 nM
Ki (OXA-24): > 100000 nM
Ki (CTX-M-15): 78.1 ± 6.63 nM
Ki (NDM-4): > 100000 nM
Ki (OXA-48): > 100000 nM
Ki (NDM-7): > 100000 nM
Ki (KPC-38): 48.3 ± 13.2 nM
Ki (VIM-1): > 100000 nM
Ki (VIM-2): > 100000 nM

C[C@]1(Cn2ccnn2)[C@H](C(=O)O)N2C(=O)C[C@H]2S1(=O)=O [Tazobactam, tazobactam]
Ki (OXA-66): > 100000 nM
Ki (NDM-1): > 100000 nM
Ki (OXA-23): 14 ± 5.31 nM
Ki (IMP-1): > 100000 nM
Ki (OXA-65): > 100000 nM
Ki (NDM-6): > 100000 nM
Ki (CTX-M-27): 0.0403 ± 0.0162 nM
Ki (KPC-3): 270 ± 80.8 nM
Ki (KPC-2): 159 ± 48.2 nM
Ki (IMP-6): > 100000 nM
Ki (SHV-5): 1.84 ± 0.243 nM
Ki (SHV-12): 1.68 ± 0.266 nM
Ki (SHV-2): 0.187 ± 0.104 nM
Ki (OXA-72): 78.9 ± 8.96 nM
Ki (NDM-5): > 100000 nM
Ki (OXA-24): 100 ± 45.6 nM
Ki (CTX-M-15): 0.0387 ± 0.00434 nM
Ki (NDM-4): > 100000 nM
Ki (OXA-48): 5.32 ± 0.329 nM
Ki (NDM-7): > 100000 nM
Ki (KPC-38): 112 ± 14.5 nM
Ki (VIM-1): > 100000 nM
Ki (VIM-2): > 100000 nM

O=C(NC1CCNCC1)[C@@H]1CC[C@@H]2CN1C(=O)N2OS(=O)(=O)O [Relebactam, relebactam]
Ki (OXA-66): > 100000 nM
Ki (NDM-1): > 100000 nM
Ki (OXA-23): 5640 nM
Ki (IMP-1): > 100000 nM
Ki (OXA-65): > 100000 nM
Ki (NDM-6): > 100000 nM
Ki (CTX-M-27): 3.62 ± 1.2 nM
Ki (CTX-M-14): 5.96 ± 3.22 nM
Ki (IMP-6): > 100000 nM
Ki (SHV-5): 6.26 ± 1.53 nM
Ki (SHV-12): 19.3 ± 6.32 nM
Ki (SHV-2): 0.373 ± 0.0856 nM
Ki (OXA-72): ≥ 37400 nM
Ki (NDM-5): > 100000 nM
Ki (OXA-24): > 100000 nM
Ki (CTX-M-15): 0.841 ± 0.235 nM
Ki (NDM-4): > 100000 nM
Ki (NDM-7): > 100000 nM
Ki (VIM-1): > 100000 nM
Ki (VIM-2): > 100000 nM

NC(=O)[C@@H]1CC[C@@H]2CN1C(=O)N2OS(=O)(=O)O [Avibactam, avibactam]
Ki (OXA-66): 7350 nM
Ki (NDM-1): > 100000 nM
Ki (IMP-1): > 100000 nM
Ki (OXA-65): 5900 nM
Ki (NDM-6): > 100000 nM
Ki (CTX-M-27): 1.29 ± 0.663 nM
Ki (CTX-M-14): 2.35 ± 0.763 nM
Ki (IMP-6): > 100000 nM
Ki (SHV-5): 2.15 ± 0.264 nM
Ki (SHV-12): 2.55 ± 0.696 nM
Ki (SHV-2): 2.26 ± 1.44 nM
Ki (OXA-72): 691 ± 63.8 nM
Ki (NDM-5): > 100000 nM
Ki (CTX-M-15): 0.369 ± 0.0569 nM
Ki (NDM-4): > 100000 nM
Ki (NDM-7): > 100000 nM
Ki (VIM-1): > 100000 nM
Ki (VIM-2): > 100000 nM
